From ChEMBL document CHEMBL3991601, “The target landscape of clinical kinase drugs” (Science, 2017)
The source made the active and inactive calls.

Columns and labels:
Rab-like protein 3 = biological target: T1, Rab-like protein 3 (Homo sapiens, UniProt Q5HYI8)
T1 sequence (Q5HYI8 whole entry): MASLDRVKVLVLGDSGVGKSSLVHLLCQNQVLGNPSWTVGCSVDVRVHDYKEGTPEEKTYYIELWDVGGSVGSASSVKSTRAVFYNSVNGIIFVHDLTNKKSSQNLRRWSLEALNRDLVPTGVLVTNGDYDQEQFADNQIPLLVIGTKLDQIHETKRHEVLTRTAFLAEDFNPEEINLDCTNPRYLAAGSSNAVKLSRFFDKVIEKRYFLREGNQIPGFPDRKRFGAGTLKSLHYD

[1] = biological target: Serine/threonine-protein kinase N2 (Homo sapiens, UniProt Q16513)
Sequence of Serine/threonine-protein kinase N2 (Q16513 whole entry): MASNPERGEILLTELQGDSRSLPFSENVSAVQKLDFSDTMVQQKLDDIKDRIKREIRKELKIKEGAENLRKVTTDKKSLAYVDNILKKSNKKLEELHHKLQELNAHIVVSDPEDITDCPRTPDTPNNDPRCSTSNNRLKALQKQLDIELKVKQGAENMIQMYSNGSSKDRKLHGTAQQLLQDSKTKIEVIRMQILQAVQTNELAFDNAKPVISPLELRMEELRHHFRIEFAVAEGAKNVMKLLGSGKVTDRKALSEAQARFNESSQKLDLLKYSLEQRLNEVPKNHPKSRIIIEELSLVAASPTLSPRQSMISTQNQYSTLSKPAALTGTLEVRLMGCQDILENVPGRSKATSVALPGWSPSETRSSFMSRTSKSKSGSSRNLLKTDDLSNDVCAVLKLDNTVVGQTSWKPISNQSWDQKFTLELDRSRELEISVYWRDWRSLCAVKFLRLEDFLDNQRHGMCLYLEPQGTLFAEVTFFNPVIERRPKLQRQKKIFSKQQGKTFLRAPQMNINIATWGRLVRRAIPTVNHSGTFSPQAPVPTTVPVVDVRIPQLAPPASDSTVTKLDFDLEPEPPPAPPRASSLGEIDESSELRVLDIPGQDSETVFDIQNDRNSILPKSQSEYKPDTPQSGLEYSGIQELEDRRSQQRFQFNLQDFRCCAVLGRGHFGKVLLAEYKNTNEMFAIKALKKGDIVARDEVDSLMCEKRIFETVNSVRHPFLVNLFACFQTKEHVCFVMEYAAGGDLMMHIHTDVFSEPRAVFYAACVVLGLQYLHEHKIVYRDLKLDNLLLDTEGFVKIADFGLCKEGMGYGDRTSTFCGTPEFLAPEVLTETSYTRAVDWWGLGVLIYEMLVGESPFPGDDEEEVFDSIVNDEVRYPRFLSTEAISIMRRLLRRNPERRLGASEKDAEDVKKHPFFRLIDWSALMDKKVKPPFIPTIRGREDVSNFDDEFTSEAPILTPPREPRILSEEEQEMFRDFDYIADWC

[2] = biological target: T2, STE20-related kinase adapter protein alpha (Homo sapiens, UniProt Q7RTN6)
T2 sequence (Q7RTN6 whole entry): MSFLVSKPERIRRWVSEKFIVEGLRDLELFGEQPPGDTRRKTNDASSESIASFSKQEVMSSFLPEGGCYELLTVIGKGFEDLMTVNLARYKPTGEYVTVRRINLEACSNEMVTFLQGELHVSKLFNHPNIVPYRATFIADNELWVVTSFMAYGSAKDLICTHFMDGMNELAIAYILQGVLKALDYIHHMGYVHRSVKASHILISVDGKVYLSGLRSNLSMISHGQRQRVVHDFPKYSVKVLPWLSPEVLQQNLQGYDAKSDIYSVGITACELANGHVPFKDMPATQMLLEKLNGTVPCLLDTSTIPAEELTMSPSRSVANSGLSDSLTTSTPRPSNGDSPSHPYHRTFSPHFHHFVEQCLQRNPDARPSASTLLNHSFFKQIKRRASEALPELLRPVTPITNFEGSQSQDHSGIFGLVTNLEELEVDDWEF

[3] = biological target: Mitogen-activated protein kinase 1 (Homo sapiens, UniProt P28482)
Sequence of Mitogen-activated protein kinase 1 (P28482 whole entry): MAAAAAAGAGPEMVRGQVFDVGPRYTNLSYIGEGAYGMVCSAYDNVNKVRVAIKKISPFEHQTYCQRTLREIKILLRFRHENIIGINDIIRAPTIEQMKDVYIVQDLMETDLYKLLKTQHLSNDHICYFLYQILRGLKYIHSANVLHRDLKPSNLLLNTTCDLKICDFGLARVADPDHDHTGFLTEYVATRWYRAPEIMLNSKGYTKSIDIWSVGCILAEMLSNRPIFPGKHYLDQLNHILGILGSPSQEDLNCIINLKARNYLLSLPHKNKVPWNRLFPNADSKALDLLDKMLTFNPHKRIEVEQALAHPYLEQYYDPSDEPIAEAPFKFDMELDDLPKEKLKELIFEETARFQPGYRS

[4] = biological target: T3, Uncharacterized protein FLJ45252 (Homo sapiens, UniProt Q6ZSR9); settings: read-out: Kd apparent; k-562, colo 205, sk-n-be(2) and mv-4-11
T3 sequence (Q6ZSR9 whole entry): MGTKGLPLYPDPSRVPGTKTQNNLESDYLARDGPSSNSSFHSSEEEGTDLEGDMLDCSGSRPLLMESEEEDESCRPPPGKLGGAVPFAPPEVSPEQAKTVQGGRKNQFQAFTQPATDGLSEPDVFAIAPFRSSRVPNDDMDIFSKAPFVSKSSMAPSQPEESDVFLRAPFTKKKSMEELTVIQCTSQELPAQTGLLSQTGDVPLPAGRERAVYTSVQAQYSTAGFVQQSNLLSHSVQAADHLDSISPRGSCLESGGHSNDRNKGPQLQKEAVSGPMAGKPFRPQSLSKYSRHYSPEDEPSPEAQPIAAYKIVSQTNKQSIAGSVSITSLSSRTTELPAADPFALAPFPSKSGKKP

[5] = biological target: Fibroblast growth factor receptor 1 (Homo sapiens, UniProt P11362)
Sequence of Fibroblast growth factor receptor 1 (P11362 whole entry): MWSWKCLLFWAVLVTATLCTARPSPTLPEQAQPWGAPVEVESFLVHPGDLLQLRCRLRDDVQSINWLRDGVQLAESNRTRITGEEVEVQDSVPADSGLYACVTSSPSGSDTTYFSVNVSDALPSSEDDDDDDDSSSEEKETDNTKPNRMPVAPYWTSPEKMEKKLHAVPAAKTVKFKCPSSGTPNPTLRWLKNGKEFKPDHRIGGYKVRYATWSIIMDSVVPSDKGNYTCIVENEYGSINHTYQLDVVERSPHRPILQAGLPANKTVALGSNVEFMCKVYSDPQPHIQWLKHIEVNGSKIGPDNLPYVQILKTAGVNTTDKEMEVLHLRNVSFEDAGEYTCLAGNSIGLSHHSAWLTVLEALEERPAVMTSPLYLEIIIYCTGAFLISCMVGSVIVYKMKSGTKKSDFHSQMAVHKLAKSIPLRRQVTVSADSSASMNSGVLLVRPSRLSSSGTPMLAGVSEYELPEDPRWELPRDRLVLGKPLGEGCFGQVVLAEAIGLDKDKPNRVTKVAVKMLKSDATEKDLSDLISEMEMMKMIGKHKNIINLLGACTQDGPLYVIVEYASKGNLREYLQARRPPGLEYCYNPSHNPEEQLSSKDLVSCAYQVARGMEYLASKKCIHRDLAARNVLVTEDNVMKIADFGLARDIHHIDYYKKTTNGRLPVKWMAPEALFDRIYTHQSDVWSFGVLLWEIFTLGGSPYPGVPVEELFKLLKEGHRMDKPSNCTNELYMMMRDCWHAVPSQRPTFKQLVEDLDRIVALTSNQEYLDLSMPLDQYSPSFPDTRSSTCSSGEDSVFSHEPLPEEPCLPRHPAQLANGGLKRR

[6] = biological target: Calcium/calmodulin-dependent protein kinase type II subunit gamma (Homo sapiens, UniProt Q13555)
Sequence of Calcium/calmodulin-dependent protein kinase type II subunit gamma (Q13555 whole entry): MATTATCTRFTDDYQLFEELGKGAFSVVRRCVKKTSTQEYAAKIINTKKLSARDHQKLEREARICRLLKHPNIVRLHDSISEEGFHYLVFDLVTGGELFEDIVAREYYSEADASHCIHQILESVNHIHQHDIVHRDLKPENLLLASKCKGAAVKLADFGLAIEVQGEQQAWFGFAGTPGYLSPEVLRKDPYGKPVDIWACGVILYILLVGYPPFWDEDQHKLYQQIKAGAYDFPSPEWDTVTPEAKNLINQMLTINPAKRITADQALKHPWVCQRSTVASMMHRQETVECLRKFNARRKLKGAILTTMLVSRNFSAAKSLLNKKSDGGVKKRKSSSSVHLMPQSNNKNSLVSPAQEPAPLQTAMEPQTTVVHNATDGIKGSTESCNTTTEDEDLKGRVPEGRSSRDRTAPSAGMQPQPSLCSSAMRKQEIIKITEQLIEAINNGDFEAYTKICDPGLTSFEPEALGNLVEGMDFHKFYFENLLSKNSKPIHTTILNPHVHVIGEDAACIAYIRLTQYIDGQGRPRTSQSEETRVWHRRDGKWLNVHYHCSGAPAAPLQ

[7] = biological target: NADH dehydrogenase [ubiquinone] 1 alpha subcomplex subunit 13 (Homo sapiens, UniProt Q9P0J0)
Sequence of NADH dehydrogenase [ubiquinone] 1 alpha subcomplex subunit 13 (Q9P0J0 whole entry, one chain of several): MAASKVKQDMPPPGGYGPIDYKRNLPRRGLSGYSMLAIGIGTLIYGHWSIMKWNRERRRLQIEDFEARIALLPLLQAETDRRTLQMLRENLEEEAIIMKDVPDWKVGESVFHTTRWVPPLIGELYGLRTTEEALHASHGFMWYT

[8] = biological target: T4, Inhibitor of nuclear factor kappa-B kinase subunit epsilon (Homo sapiens, UniProt Q14164)
T4 sequence (Q14164 whole entry): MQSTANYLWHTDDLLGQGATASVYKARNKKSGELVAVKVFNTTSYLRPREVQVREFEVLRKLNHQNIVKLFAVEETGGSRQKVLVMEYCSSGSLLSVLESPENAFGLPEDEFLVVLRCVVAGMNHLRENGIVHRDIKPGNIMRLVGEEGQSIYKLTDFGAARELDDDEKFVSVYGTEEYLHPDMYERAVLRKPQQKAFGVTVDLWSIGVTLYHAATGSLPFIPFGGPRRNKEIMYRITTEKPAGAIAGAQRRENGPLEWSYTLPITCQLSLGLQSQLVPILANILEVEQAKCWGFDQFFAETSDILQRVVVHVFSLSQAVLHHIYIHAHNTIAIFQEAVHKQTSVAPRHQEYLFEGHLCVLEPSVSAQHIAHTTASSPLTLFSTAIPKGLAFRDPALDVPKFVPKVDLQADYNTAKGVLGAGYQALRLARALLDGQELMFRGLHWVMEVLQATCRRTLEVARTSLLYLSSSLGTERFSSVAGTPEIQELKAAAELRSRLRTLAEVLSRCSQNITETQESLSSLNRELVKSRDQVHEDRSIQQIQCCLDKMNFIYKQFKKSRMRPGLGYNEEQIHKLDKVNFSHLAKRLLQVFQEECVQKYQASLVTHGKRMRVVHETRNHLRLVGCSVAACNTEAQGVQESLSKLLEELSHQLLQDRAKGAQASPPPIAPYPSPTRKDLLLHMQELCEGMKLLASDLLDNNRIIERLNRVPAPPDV

[9] = biological target: T5, Signal recognition particle receptor subunit alpha (Homo sapiens, UniProt P08240)
T5 sequence (P08240 whole entry): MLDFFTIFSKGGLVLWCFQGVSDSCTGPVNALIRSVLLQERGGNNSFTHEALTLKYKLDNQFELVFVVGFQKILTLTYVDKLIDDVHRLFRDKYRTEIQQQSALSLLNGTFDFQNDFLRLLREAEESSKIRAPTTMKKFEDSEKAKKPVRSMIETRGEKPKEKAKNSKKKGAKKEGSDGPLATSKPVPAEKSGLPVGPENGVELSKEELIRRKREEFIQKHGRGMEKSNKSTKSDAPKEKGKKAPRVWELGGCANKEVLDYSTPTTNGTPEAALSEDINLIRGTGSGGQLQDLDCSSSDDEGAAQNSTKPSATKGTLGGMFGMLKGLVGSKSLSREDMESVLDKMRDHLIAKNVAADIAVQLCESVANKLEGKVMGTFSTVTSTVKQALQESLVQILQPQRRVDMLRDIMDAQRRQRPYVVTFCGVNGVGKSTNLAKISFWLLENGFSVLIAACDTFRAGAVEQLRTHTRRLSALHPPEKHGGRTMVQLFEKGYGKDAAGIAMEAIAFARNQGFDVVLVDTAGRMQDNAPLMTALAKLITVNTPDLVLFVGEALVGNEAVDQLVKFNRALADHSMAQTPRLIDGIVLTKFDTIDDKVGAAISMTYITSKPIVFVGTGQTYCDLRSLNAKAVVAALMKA
Note: in the data inactive means no Kd found up to 30 µM.

Kd (Rab-like protein 3) | Kd [1] | Kd [2] | Kd [3] | Kd [4] | Kd [5] | Kd [6] | Kd [7] | Kd [8] | Kd [9] | Compound
> 30 µM (inactive) | > 30 µM (inactive) | > 30 µM (inactive) | > 30 µM (inactive) | > 30 µM (inactive) | > 30 µM (inactive) | > 30 µM (inactive) | > 30 µM (inactive) | > 30 µM (inactive) | > 30 µM (inactive) | Cc1cc(-c2cc(OC(=O)c3ccccc3)ccc2Cl)cc2nnc(Nc3ccc(OCCN4CCCC4)cc3)nc12 [TG100-801]
> 30 µM (inactive) | > 30 µM (inactive) | > 30 µM (inactive) | > 30 µM (inactive) | 0.088 µM (active) | > 30 µM (inactive) | 0.018 µM (active) | > 30 µM (inactive) | > 30 µM (inactive) | > 30 µM (inactive) | CCN1CCN(Cc2ccc(Nc3ncc(F)c(-c4cc(F)c5nc(C)n(C(C)C)c5c4)n3)nc2)CC1 [ABEMACICLIB]
> 30 µM (inactive) | > 30 µM (inactive) | > 30 µM (inactive) | > 30 µM (inactive) | > 30 µM (inactive) | > 30 µM (inactive) | > 30 µM (inactive) | > 30 µM (inactive) | > 30 µM (inactive) | > 30 µM (inactive) | O=c1[nH]c([C@@H]2CCCN2)nc2c1oc1ccc(Cl)cc12
> 30 µM (inactive) | > 30 µM (inactive) | > 30 µM (inactive) | > 30 µM (inactive) | 0.869 µM (active) | > 30 µM (inactive) | > 30 µM (inactive) | > 30 µM (inactive) | > 30 µM (inactive) | > 30 µM (inactive) | Cc1cc(C(=O)Nc2cc(Oc3ccc4nc(NC(=O)C5CC5)cn4n3)ccc2C)n(C)n1 [TAK-593]
> 30 µM (inactive) | > 30 µM (inactive) | > 30 µM (inactive) | > 30 µM (inactive) | > 30 µM (inactive) | > 30 µM (inactive) | > 30 µM (inactive) | > 30 µM (inactive) | > 30 µM (inactive) | > 30 µM (inactive) | C=CC(=O)Nc1cccc(Nc2nc(Nc3ccc(N4CCN(C(C)=O)CC4)cc3OC)ncc2C(F)(F)F)c1 [ROCILETINIB]
> 30 µM (inactive) | > 30 µM (inactive) | > 30 µM (inactive) | > 30 µM (inactive) | > 30 µM (inactive) | > 30 µM (inactive) | > 30 µM (inactive) | > 30 µM (inactive) | > 30 µM (inactive) | > 30 µM (inactive) | COc1cccc2cc(-c3nc([C@H]4CC[C@H](C(=O)O)CC4)n4ncnc(N)c34)[nH]c12 [OSI-027]
> 30 µM (inactive) | > 30 µM (inactive) | > 30 µM (inactive) | > 30 µM (inactive) | 2.64 µM (active) | > 30 µM (inactive) | 14.3 µM | > 30 µM (inactive) | > 30 µM (inactive) | > 30 µM (inactive) | CC[C@@](C)(Nc1ccnc(-c2c[nH]c3ncccc23)n1)C(=O)NCC(F)(F)F [DECERNOTINIB]
> 30 µM (inactive) | > 30 µM (inactive) | > 30 µM (inactive) | > 30 µM (inactive) | > 30 µM (inactive) | > 30 µM (inactive) | > 30 µM (inactive) | > 30 µM (inactive) | > 30 µM (inactive) | > 30 µM (inactive) | CCc1cc2c(cc1N1CCC(N3CCOCC3)CC1)C(C)(C)c1[nH]c3cc(C#N)ccc3c1C2=O [ALECTINIB]
> 30 µM (inactive) | > 30 µM (inactive) | > 30 µM (inactive) | > 30 µM (inactive) | > 30 µM (inactive) | > 30 µM (inactive) | > 30 µM (inactive) | > 30 µM (inactive) | 1.32 µM (active) | > 30 µM (inactive) | COc1cc(Nc2ncc(F)c(Nc3ccc4c(n3)N(COP(=O)(O)O)C(=O)C(C)(C)O4)n2)cc(OC)c1OC [FOSTAMATINIB]
> 30 µM (inactive) | > 30 µM (inactive) | > 30 µM (inactive) | > 30 µM (inactive) | > 30 µM (inactive) | > 30 µM (inactive) | > 30 µM (inactive) | > 30 µM (inactive) | > 30 µM (inactive) | > 30 µM (inactive) | Cc1ccc(C(=O)Nc2ccc(Oc3cc4cnn(C)c4cc3-c3cn[nH]c3)c(F)c2)c(=O)n1-c1ccc(F)cc1 [MERESTINIB]
> 30 µM (inactive) | > 30 µM (inactive) | > 30 µM (inactive) | > 30 µM (inactive) | 2.53 µM (active) | > 30 µM (inactive) | > 30 µM (inactive) | > 30 µM (inactive) | > 30 µM (inactive) | > 30 µM (inactive) | c1cc(OCCN2CCCCC2)cc(-c2n[nH]c3ccc(-c4nc[nH]n4)cc23)c1 [CC-401]
> 30 µM (inactive) | > 30 µM (inactive) | > 30 µM (inactive) | > 30 µM (inactive) | > 30 µM (inactive) | > 30 µM (inactive) | > 30 µM (inactive) | > 30 µM (inactive) | > 30 µM (inactive) | > 30 µM (inactive) | O=C(NOC[C@H](O)CO)c1ccc(F)c(F)c1Nc1ccc(I)cc1F [MIRDAMETINIB]

Compound | Kd (Rab-like protein 3) | Kd [1] | Kd [2] | Kd [3] | Kd [4] | Kd [5] | Kd [6] | Kd [7] | Kd [8] | Kd [9]
CCc1nc(C(N)=O)c(Nc2ccc(N3CCC(N4CCN(C)CC4)CC3)c(OC)c2)nc1NC1CCOCC1 [GILTERITINIB] | 4.83 µM | > 30 µM (inactive) | > 30 µM (inactive) | > 30 µM (inactive) | 0.011 µM (active) | > 30 µM (inactive) | 0.169 µM (active) | > 30 µM (inactive) | 1.47 µM (active) | > 30 µM (inactive)
COCCN1CCN(Cc2ccc(-c3n[nH]c4c3C(=O)c3c(NC(=O)NN5CCOCC5)cccc3-4)cc2)CC1 [RGB-286638] | > 30 µM (inactive) | > 30 µM (inactive) | > 30 µM (inactive) | > 30 µM (inactive) | 0.022 µM (active) | > 30 µM (inactive) | > 30 µM (inactive) | > 30 µM (inactive) | 1.9 µM (active) | > 30 µM (inactive)
